Data published in ChEMBL document CHEMBL1857833, “Screening and optimization of specific chemical series against human African Trypanosomiasis (HAT)”.
Converted amounts (≈) assume the structure as drawn.

Assays:
[1] = test system: Trypanosoma brucei; assay: DNDI: Inhibition of Human African Trypanosomiasis, SBRI 427, in vitro; format: functional, organism-based
[2] = DNDI: Cytotoxicity against L929 mouse fibroblasts, 72 hour.; format: toxicity, cell-based; details: mouse, L929 mouse fibroblasts
[3] = Trypanosoma brucei, SBRI 427, read-out: IC50

Structure (SMILES)	IC50 [1, 3] [µg/mL]	IC50 at 72 h [2] [µg/mL]	IC50 [1] [µg/mL]
COc1ccc(S(=O)(=O)Nc2ccccn2)cc1	> 5	> 10	–
COc1ccc(S(=O)(=O)Nc2ccccn2)cc1OC	> 5	> 10	–
COc1ccc(/C(=N/O)Nc2cccc(C)c2)cc1	–	> 10	–
CCC(CC)N/C(=N\O)c1cccnc1Oc1ccccc1F	0.43 (≈ 1.35 µM)	–	–
CCc1cccc(NS(=O)(=O)c2ccc(OC)cc2)c1	> 5	1.88 (≈ 6.45 µM)	–
Cc1ccc(/C(=N/O)NCCN2CCCC2)c(Oc2ccc(F)cc2)n1	37.5 (≈ 105 µM)	–	–
Cc1ccc(Oc2nc(C)ccc2/C(=N/O)NC2CCCC2)cc1	6.96 (≈ 21.4 µM)	–	–
O/N=C1\COc2ccccc21	> 5	> 10	–
CCCCc1ccc(-c2nc(CNCCCN3CCCCC3)co2)cc1	2.01 (≈ 5.65 µM)	6.2 (≈ 17.4 µM)	1.48 (≈ 4.16 µM)
CCCCc1ccc(-c2nc(CC)co2)cc1	> 5	6.2 (≈ 27 µM)	–
CCCC(CCC)NCc1coc(-c2ccccc2OCC)n1	1.76 (≈ 5.56 µM)	–	–
O/N=C(\NC1CCCCC1)c1ccc(Oc2ccc3ccccc3c2)nc1	> 5	–	–
C[C@H]1C(NCc2coc(-c3ccc(O)cc3)n2)C[C@@H]2C[C@H]1C2(C)C (stereo partly drawn)	1.36 (≈ 4.17 µM)	–	–
COc1ccc(/C=N/OCc2c(F)c(F)c(F)c(F)c2F)cc1	> 5	> 10	–
CCCCc1ccc(-c2nc(C)c(C)o2)cc1	> 5	5.21 (≈ 22.7 µM)	–
O/N=C(\NC1CCCC1)c1ccc(Oc2c(F)c(F)cc(F)c2F)nc1	3.8 (≈ 10.3 µM)	–	–
CC(C)c1ccc(Oc2ncccc2/C(=N\O)NC2CCCCC2)cc1	0.09 (≈ 0.255 µM)	6.75 (≈ 19.1 µM)	–
CCc1ccc(Oc2ccc(/C(=N/O)NC3CCCC3)cn2)cc1	40.8 (≈ 126 µM)	–	–
O/N=C(\NC1CCCC1)c1ccnc(Oc2ccc(Cl)cc2)c1	5 (≈ 15.1 µM)	–	–
CCC(CC)N/C(=N\O)c1ccc(Oc2cc(C)cc(C)c2)nc1	1.61 (≈ 4.92 µM)	–	–
O/N=C(\NCc1cccnc1)c1ccc(Oc2ccc3oc4ccccc4c3c2)nc1	3.79 (≈ 9.23 µM)	–	–
CCCCc1ccc(-c2nc(CNCCCN3CCCC3)co2)cc1	1.6 (≈ 4.69 µM)	6.03 (≈ 17.7 µM)	0.89 (≈ 2.61 µM)

Structure (SMILES)	IC50 [1, 3] [µg/mL]	IC50 at 72 h [2] [µg/mL]	IC50 [1] [µg/mL]
O/N=C(\NCc1c(F)cccc1F)c1cccnc1Oc1ccc(F)cc1	2.18 (≈ 5.84 µM)	–	–
C[C@H]1C(NCc2coc(-c3cccc(F)c3)n2)C[C@@H]2C[C@H]1C2(C)C (stereo partly drawn)	1.56 (≈ 4.75 µM)	–	–
CCCCCCCCCCOc1ccc(-c2nc(CN[C@@H]3C[C@@H]4C[C@H]([C@H]3C)C4(C)C)co2)cc1	> 5	7.22 (≈ 15.5 µM)	–
CCC(CC)N/C(=N\O)c1ccnc(Oc2ccc(OC)cc2)c1	3.65 (≈ 11.1 µM)	–	–
O/N=C(\NC1CCCC1)c1cccnc1Oc1ccccc1F	18.2 (≈ 57.8 µM)	–	–
CCCCCC(C)NCc1coc(-c2ccc(CC)cc2)n1 (stereo not drawn)	1 (≈ 3.33 µM)	2.61 (≈ 8.69 µM)	–
C[C@@H]1C(NCc2coc(-c3cccc(F)c3)n2)C[C@H]2C[C@@H]1C2(C)C (stereo partly drawn)	1.18 (≈ 3.59 µM)	–	–
O/N=C(\NC1CCCCC1)c1ccnc(Oc2ccc(Cl)cc2)c1	2.4 (≈ 6.94 µM)	–	–
O/N=C(\NC1CCCCC1)c1ccc(Oc2c(F)c(F)cc(F)c2F)nc1	4.06 (≈ 10.6 µM)	–	–
Fc1c(F)c(F)c(CO/N=C/c2ccccc2-c2ccccc2)c(F)c1F	> 5	> 10	–
C(=N\Oc1ccccc1)/c1ccccc1-c1ccccc1	> 5	> 10	–
O/N=C(\NC1CCC1)c1ccc(Oc2ccc3oc4ccccc4c3c2)nc1	1.06 (≈ 2.84 µM)	–	–
Cc1ccc(/C(=N/O)Nc2cccc(F)c2)c(Oc2c(F)cccc2F)n1	3.75 (≈ 10 µM)	> 10	–
CCC(C)(C)N/C(=N\O)c1ccc(Oc2cccc3ccccc23)nc1	0.86 (≈ 2.46 µM)	–	–
Cc1cc(C)cc(CN/C(=N\O)c2ccc(C)nc2OCc2ccccn2)c1	2.79 (≈ 7.41 µM)	–	–
COc1ccc(/C(=N/O)Nc2cccc(C(C)C)c2)cc1	1.41 (≈ 4.96 µM)	5.81 (≈ 20.4 µM)	–
CCc1cccc(NS(=O)(=O)c2ccc(OC)c(OC)c2)c1	> 5	> 10	–
CCCCc1ccc(-c2nc(-c3cc(-c4ccccc4)no3)co2)cc1	> 5	> 10	–
O/N=C(\NC1CCc2ccccc21)c1cccnc1Oc1ccc2ccccc2c1 (stereo not drawn)	1.47 (≈ 3.72 µM)	–	–
O/N=C(\NC1CCCC1)c1ccc(Oc2cccc3c2CCCC3)nc1	0.31 (≈ 0.882 µM)	–	–
O/N=C(\NCC1CCCCC1)c1ccc(Oc2ccc(-n3ccnc3)cc2)nc1	1.43 (≈ 3.65 µM)	–	–
CC(C)c1ccc(Oc2ncccc2/C(=N/O)NCc2c(F)cccc2F)cc1	> 5	–	–

Structure (SMILES)	IC50 [1, 3] [µg/mL]	IC50 at 72 h [2] [µg/mL]	IC50 [1] [µg/mL]
O/N=C(\NCc1ccccc1)c1cccnc1Oc1ccc(F)cc1Cl	0.62 (≈ 1.67 µM)	–	–
CCC(CC)N/C(=N\O)c1cccnc1Oc1ccccc1SC	0.41 (≈ 1.19 µM)	–	–
O/N=C(\NCC1CCCCC1)c1ccnc(Oc2ccc(Cl)cc2)c1	3.98 (≈ 11.1 µM)	–	–
CCC(C)C(NCc1ccc(C)cc1)c1nc(Cc2ccccc2)c(N2CCCCC2)o1 (stereo not drawn)	> 5	> 10	–
CCc1ccc(Oc2ccc(/C(=N/O)NCC3CC3)cn2)cc1	0.37 (≈ 1.19 µM)	–	–
CCCCCCCCCCOc1ccc(-c2nc(CNC(C)CCCCC)co2)cc1 (stereo not drawn)	1.35 (≈ 3.15 µM)	2.9 (≈ 6.77 µM)	–
Cc1cc(Oc2ccc(/C(=N/O)N3CCCC3C)cn2)cc(C(C)C)c1 (stereo not drawn)	> 5	–	–
Cc1ccc(/C(=N/O)NC2CCCC2)c(Oc2ccc3oc4ccccc4c3c2)n1	0.67 (≈ 1.67 µM)	–	–
COCC(C)N/C(=N\O)c1ccc(Oc2ccc3ccccc3c2)nc1 (stereo not drawn)	> 5	–	–
O/N=C(\NC1CC1)c1cccnc1Oc1ccccc1F	4.25 (≈ 14.8 µM)	–	–
O/N=C(\NCC1CC1)c1ccc(Oc2cccc3c2CCCC3)nc1	0.53 (≈ 1.57 µM)	–	–
COc1ccc(Oc2cc(/C(=N/O)NCC(C)C)ccn2)cc1	> 5	–	–
C[C@H]1C(NCc2coc(-c3cccs3)n2)C[C@@H]2C[C@H]1C2(C)C (stereo partly drawn)	2.27 (≈ 7.17 µM)	–	–
CCC(CC)N/C(=N\O)c1cccnc1Oc1ccccc1OC	0.59 (≈ 1.79 µM)	–	–
O/N=C(\NCC1CCCCC1)c1cccnc1Oc1ccc(-n2cncn2)cc1	0.59 (≈ 1.5 µM)	–	–
Cc1ccc(Oc2ccccc2/C(=N/O)NC2CCCCC2)cc1	0.27 (≈ 0.832 µM)	4.06 (≈ 12.5 µM)	–
O/N=C(\NC1CCC1)c1ccc(Oc2ccc3ccccc3c2)nc1	> 5	–	–
Cc1cc(C)cc(CN/C(=N\O)c2cccnc2OCc2ccccc2F)c1	1.96 (≈ 5.17 µM)	–	–
CCCCc1ccc(-c2nc(C(=O)OCC)co2)cc1	> 5	> 10	–
COc1ccc(Oc2cc(/C(=N/O)NCC(C)(C)C)ccn2)cc1	4.8 (≈ 14.6 µM)	–	–
CC1CCC(N/C(=N\O)c2ccnc(Oc3cccc4cccnc34)c2)CC1 (stereo not drawn)	> 5	–	–
CCCCCCCCOC(=O)Cc1coc(-c2ccc(CCCC)cc2)n1	> 5	> 10	–

Structure (SMILES)	IC50 [1, 3] [µg/mL]	IC50 at 72 h [2] [µg/mL]	IC50 [1] [µg/mL]
COCC(C)N/C(=N\O)c1ccnc(Oc2ccc(SC)cc2)c1 (stereo not drawn)	0.45 (≈ 1.3 µM)	–	–
Cc1cc(C)cc(Oc2ccc(/C(=N/O)NC3CCC(C)CC3)cn2)c1 (stereo not drawn)	2.93 (≈ 8.29 µM)	–	–
Cc1ccc(Oc2ncccc2/C(=N/O)NCc2c(F)cccc2F)cc1	1.75 (≈ 4.74 µM)	–	–
CCCCc1ccc(-c2nc(C)c(C(=O)OC)o2)cc1	> 5	> 10	–
O/N=C(\NC1CC1)c1ccc(Oc2ccc3oc4ccccc4c3c2)nc1	36.6 (≈ 102 µM)	–	–
CCC(CC)N/C(=N\O)c1ccc(Oc2cccc3c2CCCC3)nc1	1.26 (≈ 3.56 µM)	–	–
COc1ccc(S(=O)(=O)NC2CCCCC2)cc1	> 5	> 10	–
COc1ccc(S(=O)(=O)NC2CCCCC2)cc1OC	> 5	> 10	–
O/N=C(\NC1CCC1)c1ccc(Oc2c(F)c(F)cc(F)c2F)nc1	2.58 (≈ 7.26 µM)	–	–
CCCCc1ccc(-c2nc(C)c(C(C)=O)o2)cc1	> 5	> 10	–
C[C@@H]1[C@H]2C[C@@H](C[C@H]1NCc1coc(-c3ccc(OC4CCCCC4)cc3)n1)C2(C)C	0.57 (≈ 1.4 µM)	1.59 (≈ 3.89 µM)	–
CCOc1ccccc1-c1nc(CNC(C)C(C)(C)C)co1 (stereo not drawn)	2.12 (≈ 7.01 µM)	–	–
COc1ccc(Oc2cc(/C(=N/O)NC3CCCCC3)ccn2)cc1	3.73 (≈ 10.9 µM)	–	–
COc1ccccc1Oc1ncccc1/C(=N/O)NCC1CC1	0.35 (≈ 1.12 µM)	–	–
CSc1ccccc1Oc1ncccc1/C(=N/O)NC1CCCC1	2.99 (≈ 8.71 µM)	–	–
CC1CCc2ccccc2N1/C(=N\O)c1cccnc1Oc1ccc(-n2cncn2)cc1 (stereo not drawn)	0.73 (≈ 1.71 µM)	–	–
CCCCc1ccc(-c2nc(-c3ccccc3)c(-c3ccccc3)o2)cc1	> 5	> 10	–
CCCCc1ccc(-c2nc(-c3ccccc3)c(C)o2)cc1	> 5	> 10	–
O/N=C(\NC1CCCC1)c1ccnc(Oc2ccc(F)c(Cl)c2)c1	2.2 (≈ 6.29 µM)	–	–
Cc1ccc(Oc2ccc(/C(=N/O)NC3CCCC3)cn2)c(C)c1	21.8 (≈ 66.9 µM)	–	–
CCCCc1ccc(-c2nc(CNCc3ccc(C)cc3)co2)cc1	3.05 (≈ 9.12 µM)	2.63 (≈ 7.86 µM)	–
CCCCc1ccc(-c2nc(-c3ccc(OC)cc3)co2)cc1	> 5	> 10	–

Structure (SMILES)	IC50 [1, 3] [µg/mL]	IC50 at 72 h [2] [µg/mL]	IC50 [1] [µg/mL]
Cc1ccc(/C(=N/O)NC2CCC2)c(Oc2ccc3oc4ccccc4c3c2)n1	0.39 (≈ 1.01 µM)	–	–
CCCCc1ccc(-c2nc(-c3ccc4ccccc4c3)co2)cc1	> 5	> 10	–
CSc1ccc(Oc2nc(C)ccc2/C(=N/O)NC2CCCC2)cc1C	0.96 (≈ 2.58 µM)	–	–
COCC(C)N/C(=N\O)c1ccnc(Oc2ccc(Cl)cc2)c1 (stereo not drawn)	0.36 (≈ 1.07 µM)	–	–
O/N=C(/c1cccnc1Oc1ccc(F)cc1Cl)N1CCCc2ccccc21	0.54 (≈ 1.36 µM)	–	–
CCC(CC)N/C(=N\O)c1cccnc1Oc1ccc(F)cc1	1.32 (≈ 4.16 µM)	–	–
CCCCc1ccc(-c2nc(CNCc3ccc(Cl)cc3)co2)cc1	> 5	7.38 (≈ 20.8 µM)	–
COCCN/C(=N\O)c1ccc(C)nc1Oc1ccc(SC)c(C)c1	> 5	–	–
COc1ccc(Oc2cc(/C(=N/O)NC3CCC3)ccn2)cc1	4.78 (≈ 15.3 µM)	–	–
COc1ccc(/C(=N/O)Nc2cccc(C(C)(C)C)c2)cc1	–	3.91 (≈ 13.1 µM)	–
CCC(C)(C)N/C(=N\O)c1ccc(Oc2ccc3oc4ccccc4c3c2)nc1	1.6 (≈ 4.11 µM)	–	–
CCC(C)(C)N/C(=N\O)c1ccc(Oc2cc(C)cc(C)c2)nc1	2.36 (≈ 7.21 µM)	–	–
O/N=C(\NCC1CC1)c1cccnc1Oc1ccc(F)cc1	1.23 (≈ 4.08 µM)	–	–
CCC(C)C(NCc1ccccc1OC)c1nc(Cc2ccccc2)c(N2CCCCC2)o1 (stereo not drawn)	> 5	> 10	–
Cc1ccc(/C(=N/O)NC2CCCCC2)c(Oc2ccc3ccccc3c2)n1	0.37 (≈ 0.985 µM)	–	–
CCOc1ccccc1-c1nc(CNC(C)C2CCCCC2)co1 (stereo not drawn)	1.94 (≈ 5.91 µM)	–	–
Cc1cc(C)cc(Oc2nc(C)ccc2/C(=N/O)N2c3ccccc3CCC2C)c1 (stereo not drawn)	1.6 (≈ 3.98 µM)	–	–
CC1CCCN1/C(=N\O)c1ccc(Oc2ccc3ccccc3c2)nc1 (stereo not drawn)	2.32 (≈ 6.68 µM)	–	–
